From paper PMC10256842, “Empowering drug off-target discovery with metabolic and structural analysis” (Nature Communications, 2023)

Target: T1, HPPK (6-Hydroxymethyl-7,8-dihydropterin pyrophosphokinase) (Escherichia coli, UniProt P26281)
T1 construct: gene folK; recombinant HPPK from pET28A, Ni-NTA purified
T1 sequence (P26281 2-159): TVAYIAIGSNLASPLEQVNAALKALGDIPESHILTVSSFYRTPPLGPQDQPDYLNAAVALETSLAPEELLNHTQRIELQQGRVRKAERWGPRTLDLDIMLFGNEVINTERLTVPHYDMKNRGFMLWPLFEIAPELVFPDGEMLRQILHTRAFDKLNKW
Assay: KinaseGlo luminescence ATP-depletion assay; substrate starts the reaction and relieves CD15-3 inhibition
Assay type: biochemical

SMILES: Nc1nc2c(c(=O)[nH]1)N=C(CO)CN2 [6-Hydroxymethyl-7,8-dihydropterin]
- KinaseGlo luminescence ATP-depletion assay; substrate starts the reaction and re: HPPK reaction was initiated with the introduction of the substrate, 6-Hydroxymethyl-7,8-dihydropterin in the assay buffer
